{
  "source": "patent US6635786B2",
  "about": "“Symmetrically disubstituted aromatic compounds and pharmaceutical compositions for inhibiting poly (ADP-ribose) glycohydrolase, and methods for their use” (Guilford Pharmaceuticals, Inc., priority 2001, dated 2003)",
  "data": [
    {"biological_target": "T1, human PARG (Homo sapiens, UniProt Q86W56)", "T1 construct": "human PARG from amino acid 378 to 976; GST (glutathione-S-transferase, pGEX-4T1) (N); made in house; host or cells: E. coli BL21", "T1 sequence (Q86W56 378-976)": "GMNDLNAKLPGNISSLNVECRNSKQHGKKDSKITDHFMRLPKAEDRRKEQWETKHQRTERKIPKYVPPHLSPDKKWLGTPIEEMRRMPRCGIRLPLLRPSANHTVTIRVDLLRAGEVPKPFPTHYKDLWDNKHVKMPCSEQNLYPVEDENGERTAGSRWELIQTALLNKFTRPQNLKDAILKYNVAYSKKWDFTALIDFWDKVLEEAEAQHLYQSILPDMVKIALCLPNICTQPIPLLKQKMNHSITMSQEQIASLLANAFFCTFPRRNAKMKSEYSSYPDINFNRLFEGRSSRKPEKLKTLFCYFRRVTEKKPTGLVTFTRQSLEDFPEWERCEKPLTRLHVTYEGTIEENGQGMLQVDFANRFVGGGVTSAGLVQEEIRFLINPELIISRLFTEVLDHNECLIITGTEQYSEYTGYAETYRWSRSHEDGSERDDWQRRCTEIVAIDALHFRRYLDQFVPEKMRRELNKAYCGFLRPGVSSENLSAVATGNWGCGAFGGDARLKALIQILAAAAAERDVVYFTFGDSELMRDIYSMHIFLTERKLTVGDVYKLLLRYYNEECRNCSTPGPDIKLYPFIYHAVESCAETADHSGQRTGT", "assay": "PARG enzymatic assay", "assay_type": "biochemical", "settings": "recombinant GST-fused human PARG (aa 378-976); 3H-labeled poly-(ADP-ribose) substrate; 23° C., 10 min", "experimental": "The potency of PARG inhibition was determined in a PARG enzymatic assay. For each compound, various doses were used to inhibit the PARG reaction. A dose responsible curve was generated to determine the IC50 value and the concentration (in μM) required to achieve 50% inhibition of the reaction.\nThe PARG assay consisted of (a) preparation of 3H-labeled radioactive PARG as substrate, (b) purification of recombinant PARG, (c) incubation of the compound with the PARG reaction, (d) separation of the product by absorption to glass fiber filter and quantifying the radioactivity of ADP-ribose by scintillation counting.\n3H-labeled poly-(ADP-ribose) was made by mixing labeled and unlabeled PAR. Labeled PAR was synthesized in a reaction of 50 mM Tris-HCl (pH 8.0), 4 mM MgCl2, 0.8 μg/mL activated DNA, 3 μM NAD, NEN 3H-NAD (0.1 mCi/mL), 0.8 μl/mL and 1.4 μl/mL Trevigen PARP. The reaction was incubated at room temperature for 60 min, then dialyzed to remove unincorporated 3H NAD using a MWCO 7000 dialysis cassette in 50 mM Phosphate buffer (pH 7.1) at 5° C. over night. Buffer was changed and dialysis continued for 2 h in the morning. The resulting 3H PAR gave 80,000 DPM/10 μL by scintillation counting.\nUnlabeled PAR was synthesized in a reaction that consisted of 50 mM Tris-HCl (pH 8.0), 4 mM MgCl2, 0.8 μg/mL activated DNA, 150 μM NAD, and 1.9 μl/mL Trevigen PARP. The reaction was incubated at room temperature for 60 min, and dialyzed to remove unincorporated NAD in a MWCO 7000 cassette using 50 mM Phosphate buffer (pH 7.1) over night at […]. Buffer was changed and dialysis continued for 2 h in the morning. The OD260 of synthesized PAR is […].\nThe final PAR mix is made by combining 3H-PAR and PAR synthesized @ 150 μM NAD so that the OD260=0.2-0.3 and the DPM/10 μL=10,000 DPM (SA=0.45 Ci/mmole). EDTA was added to 1 mM.\nA cDNA fragment encoding the carboxy terminal part of human PARG from amino acid 378 to 976 was amplified by polymerase chain reaction with human thymus cDNA (Clontech, Palo Alto, Calif.) as a template and a pair of primers with the sequences of 5′-[…]-3′ and 5′-[…]-3′. The primers contained the restriction enzyme sites EcoRI and XhoI. The PCR amplified PARG DNA fragment was digested with EcoRI and XhoI, and then ligated to the same sites in pGEX-4T1 plasmid (acquired from Pharmacia/Upjohn Co., Kalamazoo, Mich.) to create pGEX-PARG by using standard molecular biology procedure. The pGEX-PARG was transformed into E. coli strain BL21 for expressing the recombinant protein that has a glutathione-S-transferase at the amino terminus and fused in frame with PARG at the carboxy terminus. The recombinant protein was expressed and purified using glutathione-sephadex 4B beads according to the standard methodology.\nA range of potential PARG inhibitors at final concentrations of 200.0 to 0.1 μM were tested, each point done in triplicate. The compounds were dissolved in DMSO resulting in a final DMSO concentration of 5.0%. The reaction was carried out in a volume of 0.1 mL. PARG enzyme was added to a concentration of 0.05 μL/mL to microtiter plates containing approximately 10 μM 3H-labeled poly-(ADP-ribose) in 50 mM Phosphate buffer (pH 7.1), 5 mM B-mercaptoethanol. The reaction was incubated at 23° C. for 10 min. and was stopped with the addition of TCA to a final concentration of 10%.\nEnzyme activity was measured by the disappearance of substrate, [poly-(ADP-ribose) polymer], which was quantified as the loss of glass fiber filter adsorbed radioactivity. The reaction was harvested onto Millipore GFC96 well filter plates using the Packard Cell Harvestor. The plates were washed three times with 70% ethanol, air dried, and the radioactivity was measured by scintillation counting.", "units": {"IC50": "µM"}, "values": [
      {"compound": "3,9-Bis[3-(1-pyrrolo)propionyl]fluoranthene [Example 55]", "IC50": 27.3},
      {"compound": "3,9-Bis{N-[(2,3-dimethoxy-phenyl)]-methyl}fluoranthenedicarboxamide [Example 34]", "IC50": 31.2},
      {"compound": "O=C(OCc1ccc(F)cc1)c1ccc2c(c1)C(Cl)(Cl)c1cc(C(=O)OCc3ccc(F)cc3)ccc1-2", "note": "[Example 4, 9,9-Dichloro-9H-fluorene-2,7-dicarboxylic acid bis-(p-fluorobenzyl) ester]", "IC50": 18.9},
      {"compound": "O=C(OCCc1ccccc1)c1ccc2c(c1)C(Cl)(Cl)c1cc(C(=O)OCCc3ccccc3)ccc1-2", "note": "[Example 5, 9,9-Dichloro-9H-fluorene-2,7-dicarboxylic acid bis-(2-phenyl-ethyl) ester]", "IC50": 11.2},
      {"compound": "O=C(OCc1ccc(O)c(O)c1)c1ccc2c(c1)C(Cl)(Cl)c1cc(C(=O)OCc3ccc(O)c(O)c3)ccc1-2", "note": "[Example 6, 9,9-Dichloro-9H-fluorene-2,7-dicarboxylic acid bis-(3,4-dihydroxy-benzyl) ester]", "IC50": 10},
      {"compound": "COC(=O)c1ccc2c(c1)C(Cl)(Cl)c1cc(C(=O)OC)ccc1-2", "note": "[Example 7, 9,9-Dichloro-9H-fluorene-2,7-dicarboxylic acid bis-methyl ester]", "IC50": 45.6},
      {"compound": "O=C(OCCc1cccc2ccccc12)c1ccc2c(c1)C(Cl)(Cl)c1cc(C(=O)OCCc3cccc4ccccc34)ccc1-2", "note": "[Example 8, 9,9-Dichloro-9H-fluorene-2,7-dicarboxylic acid bis-(2-naphthalen-1-yl-ethyl) ester]", "IC50": 17.1},
      {"compound": "O=C(OCCc1ccc2ccccc2c1)c1ccc2c(c1)C(Cl)(Cl)c1cc(C(=O)OCCc3ccc4ccccc4c3)ccc1-2", "note": "[Example 9, 9,9-Dichloro-9H-fluorene-2,7-dicarboxylic acid bis-(2-naphthalen-2-yl-ethyl) ester]", "IC50": 46.6},
      {"compound": "O=C(OCc1ccc2ccccc2c1)c1ccc2c(c1)C(Cl)(Cl)c1cc(C(=O)OCc3ccc4ccccc4c3)ccc1-2", "note": "[Example 10, 9,9-Dichloro-9H-fluorene-2,7-dicarboxylic acid bis-(2-naphthalen-2-yl-methyl) ester]", "IC50": 27.1},
      {"compound": "O=C(OCc1cccc2ccccc12)c1ccc2c(c1)C(Cl)(Cl)c1cc(C(=O)OCc3cccc4ccccc34)ccc1-2", "note": "[Example 11, 9,9-Dichloro-9H-fluorene-2,7-dicarboxylic acid bis-(2-naphthalen-1-yl-methyl) ester]", "IC50": 7.9},
      {"compound": "COc1ccc(CCCCOC(=O)c2ccc3c(c2)C(Cl)(Cl)c2cc(C(=O)OCCCCc4ccc(OC)cc4)ccc2-3)cc1", "note": "[Example 12, 9,9-Dichloro-9H-fluorene-2,7-dicarboxylic acid bis-[4-(4-methoxy-phenyl)-butyl]ester]", "IC50": 18.3},
      {"compound": "O=C(NCc1cccc2ccccc12)c1ccc2c(c1)C(Cl)(Cl)c1cc(C(=O)NCc3cccc4ccccc34)ccc1-2", "note": "[Example 14, 2,7 Bis-[N-(naphthalen-1-ylmethyl)-carbamoyl]-9,9-dichloro-9H-fluorene]", "IC50": 47.7},
      {"compound": "O=C(NCCc1ccccc1)c1ccc2c(c1)C(Cl)(Cl)c1cc(C(=O)NCCc3ccccc3)ccc1-2", "note": "[Example 15, 2,7-Bis-[N-(phenethyl)-carbamoyl]-9,9-dichloro-9H-fluorene]", "IC50": 24.9},
      {"compound": "O=C(NCc1ccccc1)c1ccc2c(c1)C(=O)c1cc(C(=O)NCc3ccccc3)ccc1-2", "note": "[Example 17, 2,7-Bis(N-benzylcarbamoyl)-9-Oxo-9H-fluorene]", "IC50": 21.8},
      {"compound": "O=C(NCc1ccccc1)c1ccc(C(=O)c2ccc(C(=O)NCc3ccccc3)cc2)cc1", "note": "[Example 19, 4,4′-Bis(N-benzyl)carbamoyl-benzophenone]", "IC50": 75},
      {"compound": "O=C(NCCCc1ccccc1)c1ccc(C(=O)c2ccc(C(=O)NCCCc3ccccc3)cc2)cc1", "note": "[Example 20, 4,4′-Bis(N-phenpropyl)carbamoyl-benzophenone]", "IC50": 40.1},
      {"compound": "O=C(NCCc1ccccc1)c1cccc(C(=O)c2cccc(C(=O)NCCc3ccccc3)c2)c1", "note": "[Example 21, 3,3′-Bis(N-phenethyl)carbamoyl-benzophenone]", "IC50": 65.6},
      {"compound": "O=C(NCc1ccccc1)c1ccc2c(c1)-c1ccc(C(=O)NCc3ccccc3)c3cccc-2c13", "note": "[Example 23, 3,9-Bis(N-phenylmethyl)fluoranthenedicarboxamide]", "IC50": 35.2},
      {"compound": "O=C(NCCN1CCCCC1)c1ccc2c(c1)-c1ccc(C(=O)NCCN3CCCCC3)c3cccc-2c13", "note": "[Example 24, 3,9-Bis[N-(2-piperidin-1-yl)ethyl]fluoranthenedicarboxamide]", "IC50": 57},
      {"compound": "O=C(NCCN1CCCC1)c1ccc2c(c1)-c1ccc(C(=O)NCCN3CCCC3)c3cccc-2c13", "note": "[Example 25, 3,9-Bis[N-(2-pyrrolidin-1-yl)-ethyl]fluoranthenedicarboxamide]", "IC50": 28.6},
      {"compound": "O=C(NCc1cccnc1)c1ccc2c(c1)-c1ccc(C(=O)NCc3cccnc3)c3cccc-2c13", "note": "[Example 26, 3,9-Bis[N-(pyridin-3-yl)methyl]fluoranthenedicarboxamide]", "IC50": 100},
      {"compound": "O=C(NCCCN1CCOCC1)c1ccc2c(c1)-c1ccc(C(=O)NCCCN3CCOCC3)c3cccc-2c13", "note": "[Example 27]", "IC50": 100},
      {"compound": "COc1ccc(CNC(=O)c2ccc3c(c2)-c2ccc(C(=O)NCc4ccc(OC)c(OC)c4)c4cccc-3c24)cc1OC", "note": "[Example 28, 3,9-Bis[N-(3,4-dimethoxy-benzyl)]fluoranthenedicarboxamide]", "IC50": 11.1},
      {"compound": "O=C(NCCOc1ccccc1)c1ccc2c(c1)-c1ccc(C(=O)NCCOc3ccccc3)c3cccc-2c13", "note": "[Example 29, 3,9-Bis[N-(2-phenoxy)ethyl]fluoranthenedicarboxamide]", "IC50": 29},
      {"compound": "O=C(NCCc1ccc(Cl)cc1Cl)c1ccc2c(c1)-c1ccc(C(=O)NCCc3ccc(Cl)cc3Cl)c3cccc-2c13", "note": "[Example 30, 3,9-Bis[N-[2-(2,4-dichloro-phenyl)]-ethyl]fluoranthenedicarboxamide]", "IC50": 21.2},
      {"compound": "N#CC1CCC(CNC(=O)c2ccc3c(c2)-c2ccc(C(=O)NCC4CCC(C#N)CC4)c4cccc-3c24)CC1", "note": "(centres unmarked) [Example 31]", "IC50": 30.4},
      {"compound": "COc1ccccc1CCNC(=O)c1ccc2c(c1)-c1ccc(C(=O)NCCc3ccccc3OC)c3cccc-2c13", "note": "[Example 32, 3,9-Bis{N-[2-(2-methoxy-phenyl)]-ethyl}fluoranthenedicarboxamide]", "IC50": 21.1},
      {"compound": "COc1cccc(CCNC(=O)c2ccc3c(c2)-c2ccc(C(=O)NCCc4cccc(OC)c4)c4cccc-3c24)c1", "note": "[Example 33, 3,9-Bis{N-[2-(3-methoxy-phenyl)]-ethyl}fluoranthenedicarboxamide]", "IC50": 45.5},
      {"compound": "NS(=O)(=O)c1ccc(CCNC(=O)c2ccc3c(c2)-c2ccc(C(=O)NCCc4ccc(S(N)(=O)=O)cc4)c4cccc-3c24)cc1", "note": "[Example 35, 3,9-Bis[N-[2-(4-sulfamoyl-phenyl)]-ethyl]fluoranthenedicarboxamide]", "IC50": 15.1},
      {"compound": "O=C(OCc1ccccn1)c1ccc2c(c1)-c1ccc(C(=O)OCc3ccccn3)c3cccc-2c13", "note": "[Example 36, 3,9-Bis(2-pyridinylmethyl)fluoranthenedicarboxylate]", "IC50": 106},
      {"compound": "O=C(CCCl)c1ccc2oc3ccc(C(=O)CCCl)cc3c(=O)c2c1", "note": "[Example 38, 2,7-Bis-(3-chloro-propionyl)-xanthen-9-one]", "IC50": 17},
      {"compound": "O=C(c1cccc2c1S(=O)(=O)c1c(cccc1C(=O)N1CCN(c3ccc(F)cc3)CC1)O2)N1CCN(c2ccc(F)cc2)CC1", "note": "[Example 43, 1,9-Bis{N-[4-(4-fluoro-phenyl)-piperazine-carbamoyl]}-10,10-dioxo-phenoxathiin]", "IC50": 5.7}
    ]}
  ]
}
